Data on 53 compounds can be found in ChEMBL document CHEMBL1121521, “Inhibitors of Bacillus subtilis DNA polymerase III. 6-Anilinouracils and 6-(alkylamino)uracils” (J Med Chem, 1980).

For assay [1], the target named is T1, DNA polymerase III PolC-type (Bacillus subtilis (strain 168), UniProt P13267). Description: Inhibition of Bacillus subtilis DNA polymerase III (wild type); NA = inactive (<10% inhibition at 1000 uM).
Target sequence in this assay (P13267 whole entry): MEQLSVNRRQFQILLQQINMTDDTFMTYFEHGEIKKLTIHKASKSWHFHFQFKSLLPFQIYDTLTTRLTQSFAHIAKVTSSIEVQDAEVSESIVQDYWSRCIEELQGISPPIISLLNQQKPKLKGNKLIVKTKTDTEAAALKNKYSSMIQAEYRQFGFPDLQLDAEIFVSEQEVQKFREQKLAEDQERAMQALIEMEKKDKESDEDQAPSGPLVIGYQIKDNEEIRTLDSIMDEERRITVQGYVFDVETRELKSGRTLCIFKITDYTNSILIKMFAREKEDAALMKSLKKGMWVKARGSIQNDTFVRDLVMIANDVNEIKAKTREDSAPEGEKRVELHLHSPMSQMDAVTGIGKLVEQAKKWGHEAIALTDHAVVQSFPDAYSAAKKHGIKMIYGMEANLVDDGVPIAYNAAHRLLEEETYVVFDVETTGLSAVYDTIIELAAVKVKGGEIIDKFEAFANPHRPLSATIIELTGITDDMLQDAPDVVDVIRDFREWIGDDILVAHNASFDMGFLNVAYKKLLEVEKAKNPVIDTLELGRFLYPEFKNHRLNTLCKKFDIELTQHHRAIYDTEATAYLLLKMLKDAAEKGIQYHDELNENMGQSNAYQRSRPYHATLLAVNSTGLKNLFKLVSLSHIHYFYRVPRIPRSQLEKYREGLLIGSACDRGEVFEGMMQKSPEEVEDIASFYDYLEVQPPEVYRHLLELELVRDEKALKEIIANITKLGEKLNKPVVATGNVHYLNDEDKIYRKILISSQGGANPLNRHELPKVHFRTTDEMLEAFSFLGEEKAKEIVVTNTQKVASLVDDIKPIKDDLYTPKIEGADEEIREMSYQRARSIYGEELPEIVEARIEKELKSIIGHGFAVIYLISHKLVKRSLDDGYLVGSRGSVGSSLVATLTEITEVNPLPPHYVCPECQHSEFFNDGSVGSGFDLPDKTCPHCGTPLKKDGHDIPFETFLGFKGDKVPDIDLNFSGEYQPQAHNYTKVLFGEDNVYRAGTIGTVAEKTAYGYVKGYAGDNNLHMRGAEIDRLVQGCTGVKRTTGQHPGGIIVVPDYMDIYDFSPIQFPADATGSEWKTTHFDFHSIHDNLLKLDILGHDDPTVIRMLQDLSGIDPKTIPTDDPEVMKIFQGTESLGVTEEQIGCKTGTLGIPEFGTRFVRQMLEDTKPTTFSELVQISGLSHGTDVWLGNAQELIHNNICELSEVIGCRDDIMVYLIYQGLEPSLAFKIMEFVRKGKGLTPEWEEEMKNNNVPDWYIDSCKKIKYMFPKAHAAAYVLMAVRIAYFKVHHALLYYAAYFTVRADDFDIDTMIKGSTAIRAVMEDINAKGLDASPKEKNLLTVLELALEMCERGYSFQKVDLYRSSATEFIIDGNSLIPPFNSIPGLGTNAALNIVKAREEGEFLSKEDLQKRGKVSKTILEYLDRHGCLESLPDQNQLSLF
The target in assay [2] is T1, DNA polymerase III PolC-type. Description: Inhibition against Bacillus subtilis DNA polymerase III (wild type).
Target sequence in this assay (P13267 whole entry): as above
Assay [3] addresses DNA polymerase III PolC-type (Bacillus subtilis (strain 168)) (UniProt P13267). Description: Degree of resistance is the ratio between inhibition of Bacillus subtilis DNA Polymerase III azp-12 and WT.
The target in assay [4] is T1, DNA polymerase III PolC-type. Description: Inhibition of Bacillus subtilis DNA polymerase III (wild type).
Target sequence in this assay (P13267 whole entry): as above
The target is the same in assay [5]. Description: Inhibition against Bacillus subtilis DNA Polymerase III/azp-12(mutant);NA = inactive (<10% inhibition at 1000 uM).
Target sequence in this assay (P13267 whole entry, looked up): as the sequence (P13267 whole entry) above
The target is the same in assay [6]. The experiment in a line: Inhibition of Bacillus subtilis […](wild type); NA = inactive (<10% inhibition at 1000 uM).
Target sequence in this assay (P13267 whole entry): as above
For assay [7] the target is unchanged. Description: In vitro inhibition of Bacillus subtilis DNA Polymerase III/azp-12(mutant).
Target sequence in this assay (P13267 whole entry, looked up): as the sequence (P13267 whole entry) above
Assay [8] shares this target. Description: Inhibition against Bacillus subtilis DNA Polymerase III/azp-12(mutant).
Target sequence in this assay (P13267 whole entry, looked up): as the sequence (P13267 whole entry) above

In general, Ki refers to a measure of affinity in units of concentration, obtained from inhibition or displacement. The low end stands for higher affinity, the high end for lower affinity.

DNA polymerase III PolC-type (Bacillus subtilis (strain 168)), sequence (P13267 whole entry): as above

Consider `Cc1ccccc1Nc1cc(O)nc(O)n1`, for which the Ki entry in assay [1] is listed as “Not Active”.

Turning to `CC(=O)Nc1cc(Nc2cc(O)nc(O)n2)ccc1C`, the inhibition constant (Ki) in assay [2] came out at 460 µM.

In assay [2], `O=c1cc(Nc2cccc(CCl)c2)[nH]c(=O)[nH]1` came in with a Ki of 7.6 µM.

Consider `Cc1cccc(Nc2cc(O)nc(O)n2)c1`, for which the Degree of resistance in assay [3] was found to be 4.2.

Compound `Cc1ccc(Nc2cc(=O)[nH]c(=O)[nH]2)cc1CO` returned a Ki in assay [2] of 78.5 µM.

In the case of `CCCCNc1cc(O)nc(O)n1`, the Ki in assay [4] is 5370 µM.

As for `Oc1cccc(Nc2cc(O)nc(O)n2)c1`, the inhibition constant Ki in assay [2] was 2630 µM; in assay [5], “Not Active”.

With `CC(C)c1ccc(Nc2cc(O)nc(O)n2)cc1`, in assay [3], the Degree of resistance came to 0.065.

For `Oc1cc(Nc2ccc(Br)cc2)nc(O)n1`, the Degree of resistance in assay [3] turned out to be 0.13.

For the compound `OCc1ccc(Nc2cc(O)nc(O)n2)cc1`, the Degree of resistance in assay [3] came out at 0.6.

Consider `Oc1cc(Nc2cccc(I)c2)nc(O)n1`, for which the Degree of resistance in assay [3] was 4.3.

On to `CCc1cccc(Nc2cc(O)nc(O)n2)c1`, for which the Degree of resistance in assay [3] worked out at 6.4.

`Cc1cccc(Nc2cc(=O)[nH]c(=O)[nH]2)c1C` came in with a Ki in assay [2] of 223 µM.

Turning to `CCNc1cc(O)nc(O)n1`, the Ki result in assay [6] is listed as “Not Active”.

In the case of `Cc1cccc(Nc2cc(=O)[nH]c(=O)[nH]2)c1`, the inhibition constant Ki in assay [2] was determined as 42.8 µM; in assay [7], 178 µM.

Compound `Cc1cc(C)cc(Nc2cc(=O)[nH]c(=O)[nH]2)c1` yielded an inhibition constant Ki in assay [2] of 124 µM.

On to `O=c1cc(Nc2ccc(C(F)(F)F)cc2)[nH]c(=O)[nH]1`, for which the affinity in assay [2] corresponds to a Ki of 101 µM.

For `Cc1ccc(Nc2cc(O)nc(O)n2)cc1`, the Degree of resistance in assay [3] came to 3.9.

Compound `Oc1cc(Nc2ccc(Cl)c(Cl)c2)nc(O)n1` displayed a Ki in assay [2] of 0.93 µM.

`CCCCCCCCCCNc1cc(O)nc(O)n1`: the Ki result in assay [6] is “Not Active”.

As to `Oc1cc(Nc2ccc3c(c2)CCC3)nc(O)n1`, the inhibition constant (Ki) in assay [2] amounted to 0.42 µM.

With `Cc1cc(Nc2cc(O)nc(O)n2)ccc1Br`, in assay [3], the Degree of resistance came out at 0.85.

For the compound `Oc1cc(Nc2cccc(Br)c2)nc(O)n1`, the Ki in assay [2] came to 10.3 µM; in assay [7], 21.9 µM. Moreover, in assay [3], the Degree of resistance turned out to be 2.1.

In turn, `CCCCCCNc1cc(=O)[nH]c(=O)[nH]1` displayed an inhibition constant (Ki) in assay [2] of 370 µM.

As for `O=c1cc(Nc2ccc3ccccc3c2)[nH]c(=O)[nH]1`, the Ki in assay [2] is 6.8 µM.

With `CC(C)CCNc1cc(=O)[nH]c(=O)[nH]1`, in assay [2], affinity was put at a Ki of 2400 µM.

On to `OCc1cccc(Nc2cc(O)nc(O)n2)c1`, for which the Degree of resistance in assay [3] is 12.4.

As for `Cc1ccc(Nc2cc(=O)[nH]c(=O)[nH]2)cc1N`, the Ki worked out at 122 µM in assay [2] and 298 µM in assay [8].

With `CCCc1ccc(Nc2cc(=O)[nH]c(=O)[nH]2)cc1`, the values for the inhibition constant (Ki) in assay [2] and in assay [7] were 452 µM and 54 µM, respectively.

Compound `CC(=O)Nc1ccc(Nc2cc(=O)[nH]c(=O)[nH]2)cc1C` came in with a Ki in assay [2] of 464 µM.

`O=c1cc(Nc2cccc3ccccc23)[nH]c(=O)[nH]1` showed a Ki in assay [2] of 82.6 µM.

In the case of `CCCNc1cc(O)nc(O)n1`, the Ki entry in assay [1] was “Not Active”.

Consider `O=c1cc(Nc2ccc(Cl)cc2)[nH]c(=O)[nH]1`, for which the Degree of resistance in assay [3] was found to be 0.56.

In assay [4], `CCCCCNc1cc(=O)[nH]c(=O)[nH]1` returned a Ki of 335 µM.

`Cc1ccc(Nc2cc(O)nc(O)n2)c(C)c1` yielded a Ki in assay [2] of 1990 µM.

With `CCc1ccc(Nc2cc(O)nc(O)n2)cc1`, the Degree of resistance in assay [3] turned out to be 0.3.

`CCc1ccccc1Nc1cc(O)nc(O)n1`: the inhibition constant Ki result in assay [6] is given as “Not Active”.

With `Cc1ccc(Nc2cc(O)nc(O)n2)cc1C`, the Ki in assay [2] amounted to 0.92 µM; in assay [7] it was 3.5 µM. Further, the Degree of resistance in assay [3] was 3.9.

On to `Oc1cc(Nc2cccc(Cl)c2)nc(O)n1`, for which the Ki in assay [2] was 25 µM; in assay [7], 41.7 µM. In addition, the Degree of resistance in assay [3] worked out at 1.7.

As to `Cc1cc(Nc2cc(=O)[nH]c(=O)[nH]2)ccc1N`, the inhibition constant Ki is 19 µM in assay [2] and 158 µM in assay [8].

For `COc1ccc(Nc2cc(O)nc(O)n2)cc1`, the inhibition constant (Ki) in assay [2] and in assay [7] was 120 µM throughout. Also, the Degree of resistance in assay [3] was 1.

In assay [2], `Cc1ccc(Nc2cc(O)nc(O)n2)cc1CCl` displayed a Ki of 0.26 µM.

For `Cc1ccc(Nc2cc(=O)[nH]c(=O)[nH]2)cc1I`, the affinity in assay [2], expressed as Ki, was 0.38 µM.

With `Oc1ccc(Nc2cc(O)nc(O)n2)cc1`, the Degree of resistance in assay [3] was found to be 2.2.

Regarding `Cc1ccc(Nc2cc(O)nc(O)n2)cc1Cl`, the affinity in assay [2] corresponds to a Ki of 0.63 µM.

As to `Cc1cc(C)c(Nc2cc(O)nc(O)n2)c(C)c1`, in assay [6], the Ki entry is reported as “Not Active”.

For the compound `Nc1ccc(Nc2cc(=O)[nH]c(=O)[nH]2)cc1`, the results for the inhibition constant (Ki) in assay [2] and in assay [8] were 640 µM and 3900 µM, respectively.

For `CCCCc1ccc(Nc2cc(O)nc(O)n2)cc1`, the Degree of resistance in assay [3] is 0.4.

With `CCCc1ccc(Nc2cc(O)nc(O)n2)cc1`, the Degree of resistance in assay [3] came out at 0.12.

`C=CCNc1cc(O)nc(O)n1` registered an inhibitory constant (Ki) in assay [4] of 22400 µM.

`O=c1cc(Nc2cccc(CO)c2)[nH]c(=O)[nH]1`: the results for the Ki in assay [2] and in assay [7] were 413 µM and 5130 µM, respectively.

`Cc1ccc(C)c(Nc2cc(O)nc(O)n2)c1` gave a Ki in assay [2] of 1360 µM.

As for `O=c1cc(NCCCCCO)[nH]c(=O)[nH]1`, the Ki in assay [2] was determined as 13500 µM.
